Data as given in patent publication US10900069B2, “Devices and methods useful for detecting mechanical forces of ligand receptor interactions” (Emory University, priority 2016, dated 2021).

What was measured:
[1] = system: integrin mediated tension in NIH/3T3 cells; experiment: Dose-dependent inhibition of integrin mediated tension quantified by MCR; format: cell-based; conditions: NIH/3T3 cells pretreated 15 min with blebbistatin (10 nm-10 mm as printed), 1 h on 12 pN duplexes
Description: The non-muscle myosin II inhibitor blebbistatin, which diminishes myosin contractility and thus reduces forces transmitted by focal adhesions, was investigated. NIH/3T3 cells were pretreated with a range of blebbistatin concentrations (10 nm-[…]) for 15 min. The cells onto the surface were incubated with the 12 pN duplexes for 1 h, which was then followed by MCR readout. […] The MCR signal is a direct readout of integrin tension, measuring the dose-dependent dissipation of actomyosin contractile forces.
Cells were incubated with the cRGDfK-labelled duplex surfaces in DMEM for 1 h to promote cell adhesion. Surfaces were then washed with 0.1×SSC. Subsequently, surfaces were incubated in 1× CutSmart® buffer (20 mM Tris-acetate, 10 mM Mg(OAc)2, 50 mM KOAc, 100 μg/mL BSA, pH 7.9) with 100 nM circular template and 1 U/μL T4 ligase at 37° C. for 2 h to ensure complete ligation. Then, 250 μM dNTPs and 0.1 U/μL Phi 29 polymerase were added to the solutions and mixed well. The surfaces were incubated at 37° C. for 90 min to allow for rolling circle amplification. […] Finally, the surface was incubated with 100 nM Cy3B-FISH probe in hybridization buffer (0.5 M NaCl, 20 mM Tris-HCl, 20 mM EDTA, and 0.01% Tween, pH=7.4) at 37° C. for 30 min, rinsed with three washes of 0.1×TNT/0.1% SDS and subjected to fluorescence imaging. […]

[2] = system: NIH/3T3 cells; experiment: Brightfield imaging and F-actin staining of drug treated cells; format: cell-based

SMILES: Cc1ccc2c(c1)C(=O)C1(O)CCN(c3ccccc3)C1=N2 (stereo not drawn) [blebbistatin]
- MCR signal [1]: dose-dependent relationship
- F-actin staining ([2]; highest blebbistatin doses): more disorganized and shorter actin filaments
- cell shape by brightfield imaging ([2]; increasing drug dose): cells become more rounded with increasing drug dose
